Where two headings read alike, the source gives them in different places.
Columns and labels:
[1] = tested on: HIV-IIIb; assay: Test A: Antiviral Assay in MT4 Cells; assay type: cell-based, HIV-1
Description: 1 mL Aliquots of MT4 cells were pre-infected for 3 hours at 37° C. with 25 μL of cell growth medium (mock-infected) or a fresh 1:250 dilution of an HIV-IIIb concentrated ABI stock (0.004 m.o.i.). Infected and uninfected cells were diluted in cell growth media and 35 μL (2000 cells) was added to each well of the assay plates.
Assay plates were then maintained in a humidified, 5% CO2 incubator at 37° C. After 5 days of incubation, 25 μl of 2× concentrated CellTiter-Glo™ Reagent (catalog #G7573, Promega Biosciences, Inc., Madison, Wis.) was added to each well of the assay plate. Cell lysis was carried out by incubating at room temperature for 10 minutes and then chemiluminescence was read using an Envision plate reader (PerkinElmer).

[2] = Test C: Pharmacokinetic analysis following intravenous administration to cynomolgus monkeys; assay type: in vivo, cynomolgus (cyno) monkey; details: male, cynomolgus monkey, 1 mg/kg; for AUC(0-inf): t = 0 to infinity, read-out: Cyno AUCinf; for Cmax: maximum plasma concentration, read-out: Cyno Cmax
Description: (§1) Test C. Pharmacokinetic Analysis Following Intravenous Administration to Sprague-Dawley Rats and Beagle Dogs and Cynomologous Monkeys
All IV formulations were in solution.
Each cynomolgus (cyno) monkey IV dosing group consisted of 3 male, naïve cyno monkeys At dosing, the animals weighed ˜3.2-4 kg. The animals were fasted overnight prior to dose administration and up to 2 hr after dosing.
(§2) For the IV infusion group, the test compound was administered by intravenous infusion over 30 minutes. The rate of infusion was adjusted according to the body weight of each animal to deliver a dose of 1 mg/kg at 2 mL/kg.
(§3) Serial venous blood samples (approximately 0.4 mL each for rat and 1.0 mL for dog) were taken at specified time points after dosing from each animal. The blood samples were collected into Vacutainer™ tubes (Becton-Dickinson Corp, New Jersey, USA) containing EDTA as the anti-coagulant and were immediately placed on wet ice pending centrifugation for plasma. Centrifugation began within 1 hour of collection. All samples were placed into 96-well tubes and maintained on dry ice prior to storage at approximately −70° C.
(§4) An LC/MS/MS method was used to measure the concentration of test compounds in plasma.
(§5) Non-compartmental pharmacokinetic analysis was performed on the plasma concentration-time data.

[3] = Test B: Cytotoxicity Assay; details: human
Description: Compound cytotoxicity and the corresponding CC50 values was determined using the same protocol as described in the antiviral assay (Test A) except that uninfected cells were used.

[4] = Test C: Pharmacokinetic analysis following intravenous administration to Sprague-Dawley rats; assay type: in vivo; details: for clearance: read-out: Rat CL (converted); for AUC(0-inf): t = 0 to infinity, read-out: Rat AUCinf; for Cmax: maximum plasma concentration
Excerpt: as §1
All IV formulations were in solution.
(§6) Each rat IV dosing group consisted of 3 male SD rats. […] The animals were fasted overnight prior to dose administration and up to 4 hr after dosing. Each dog IV dosing group consisted of 3 male, naïve beagle dogs. At dosing, the animals weighed ˜10-12 kg. The animals were fasted overnight prior to dose administration and up to 2 hr after dosing.
as §2, §3, §4, §5

[5] = tested on: Human Liver Hepatocytes; assay: Test D: Metabolic Stability in Cultured Human Liver Hepatocytes; assay type: in vitro ADME; details: pooled cryopreserved hepatocytes, […] radiolabelled compound, 0-6 hours; calculated from stability data
Description: Test D. Metabolic Stability in Cultured Human Liver Hepatocytes
The final hepatocyte concentration was 1 million cells/mL. The hepatocyte/compound reaction mixture was dissolved in InVitroGRO™ KHB buffer (catalog #Z99074, BioreclamationIVT, Inc., Baltimore, Md.) at pH 7.4. The incubations were performed in duplicate. A cell free control and a positive control were included in the incubations. The incubations were carried out with gentle shaking in a 37° C. incubator under a humid atmosphere of 95% air/5% CO2 (v/v). Aliquots (100 mL) were removed after 0, 1, 3, and 6 hours and added to 200 mL quenching solution that comprised 0.1% (v/v) TFA in 5% water/95% acetonitrile (v/v). The samples were placed on a shaker for 10 min, followed by centrifugation at 3000 g for 30 min. The samples of the supernatant were analyzed on a Dionex HPLC/PerkinElmer Flow Scintillation Analyzer as described below.
The column was a Phenomenex Synergi fusion RP (150×4.6 mm, 4 mm) maintained at 32 degrees Celsius. Mobile Phase A consisted of 0.1% (v/v) TFA in 99% water/1% acetonitrile (v/v). Mobile Phase B consisted of 0.1% (v/v) TFA in 5% water/95% acetonitrile (v/v). […]
Metabolic stability was determined by measuring the change in relative abundance of metabolites and parent over time and calculating from it the rate of disappearance of the parent compound. […]

[6] = Test C: Pharmacokinetic analysis following intravenous administration to beagle dogs; assay type: in vivo
Excerpt: as §1
All IV formulations were in solution.
as §6, §2, §3, §4, §5

[7] = plasma, IV infusion over 30 minutes
[8] = male, Sprague-Dawley, rat, plasma, iv, 1 mg/kg
[9] = male, Sprague-Dawley, rat, plasma, IV infusion over 30 minutes, 1 mg/kg
[10] = male, Sprague-Dawley, rat, IV infusion over 30 minutes, 1 mg/kg
[11] = Human immunodeficiency virus 1, IIIB, MT4, 120 h

CC(C)(C#Cc1ccc(-c2ccc(Cl)c3c(NS(C)(=O)=O)nn(CC(F)(F)F)c23)c([C@H](Cc2cc(F)cc(F)c2)NC(=O)Cn2nc(C(F)(F)F)c3c2C(F)(F)[C@@H]2C[C@H]32)n1)S(C)(=O)=O [Compound 24, N—((S)-1-(3-(4-chloro-3-(methylsulfonamido)-1-(2,2,2-trifluoroethyl)-1H-indazol-7-yl)-6-(3-methyl-3-(methylsulfonyl)but-1-yn-1-yl)pyridin-2-yl)-2-(3,5-difluorophenyl)ethyl)-2-((3bS,4aR)-5,5-difluoro-3-(trifluoromethyl)-3b,4,4a,5-tetrahydro-1H-cyclopropa[3,4]cyclopenta[1,2-c]pyrazol-1-yl)acetamide]
EC50 ([1]; Human immunodeficiency virus 1, 120 h, MT4 cells infected with HIV-IIIb, 5 days incubation, CellTiter-Glo, read-out: EC50): 0.185 nM
AUC(0-inf) [2, 7]: 4.5 µM·h
Cmax ([2]; IV infusion over 30 minutes): 1300 nM
CC50 at 5 days ([3]; uninfected MT4 cells): 30100 nM
clearance [4, 8]: 0.833 mL/min/kg
AUC(0-inf) [4, 9]: 19 µM·h
Cmax [4, 10]: 1800 nM
Predicted Human Hepatic Clearance [5]: 0.17 mL/min/kg

CC(C)(C#Cc1ccc(-c2ccc(Cl)c3c(NS(=O)(=O)C4CC4)nn(CC(F)F)c23)c([C@H](Cc2cc(F)cc(F)c2)NC(=O)Cn2nc(C(F)F)c3c2C(F)(F)[C@@H]2C[C@H]32)n1)S(C)(=O)=O [Compound 38, N—((S)-1-(3-(4-chloro-3-(cyclopropanesulfonamido)-1-(2,2-difluoroethyl)-1H-indazol-7-yl)-6-(3-methyl-3-(methylsulfonyl)but-1-yn-1-yl)pyridin-2-yl)-2-(3,5-difluorophenyl)ethyl)-2-((3bS,4aR)-3-(difluoromethyl)-5,5-difluoro-3b,4,4a,5-tetrahydro-1H-cyclopropa[3,4]cyclopenta[1,2-c]pyrazol-1-yl)acetamide]
EC50 [1, 11]: 0.399 nM
times more potent in HIV antiviral assay relative to compound A ([1]; relative to compound A): about 4 times
times more potent in HIV antiviral assay relative to compound B ([1]; relative to compound B): about 8 times
clearance ([2]; plasma, iv, read-out: Cyno CL (converted)): 3.5 mL/min/kg
half-life ([2]; plasma, iv, read-out: Cyno t1/2 (converted)): 9.5 h
AUC(0-inf) [2, 7]: 4.9 µM·h
Vd ([2]; plasma, IV infusion over 30 minutes, volume of distribution at steady state, read-out: Cyno Vss): 2.1 L/kg
Cmax ([2]; IV infusion over 30 minutes): 1300 nM
CC50 at 5 days [3]: 55200 nM
clearance [4, 8]: 1.33 mL/min/kg
half-life ([4]; male, Sprague-Dawley, rat, plasma, iv, 1 mg/kg, read-out: Rat t1/2 (converted)): 19 h
AUC(0-inf) [4, 9]: 13 µM·h
Vd ([4]; male, Sprague-Dawley, rat, plasma, IV infusion over 30 minutes, 1 mg/kg, volume of distribution at steady state, read-out: Rat Vss): 1.8 L/kg
Cmax [4, 10]: 2400 nM
times longer in vivo terminal half-life in rat relative to compound A ([4]; relative to compound A): about 9.5 times
times lower in vivo clearance in rat relative to compound A ([4]; relative to compound A): about 6.3 times
times longer in vivo terminal half-life in rat relative to compound B ([4]; relative to compound B): about 6.3 times
times lower in vivo clearance in rat relative to compound B ([4]; relative to compound B): about 5.4 times
in vivo clearance and terminal half-life in dog compared to compounds A and B ([6]; compared to compounds A and B): similar
clearance ([6]; male, beagle, dog, plasma, iv, 1 mg/kg, read-out: Dog CL (converted)): 5.5 mL/min/kg
half-life ([6]; male, beagle, dog, plasma, iv, 1 mg/kg, read-out: Dog t1/2 (converted)): 7 h
AUC(0-inf) ([6]; male, beagle, dog, plasma, IV infusion over 30 minutes, 1 mg/kg, t = 0 to infinity, read-out: Dog AUCinf): 3.3 µM·h
Vd ([6]; male, beagle, dog, plasma, IV infusion over 30 minutes, 1 mg/kg, volume of distribution at steady state, read-out: Dog Vss): 1.77 L/kg
Cmax ([6]; male, beagle, dog, IV infusion over 30 minutes, 1 mg/kg, maximum plasma concentration): 1600 nM

Cn1nc(NS(C)(=O)=O)c2c(Cl)ccc(-c3ccc(C#CC(C)(C)O)nc3[C@H](Cc3cc(F)cc(F)c3)NC(=O)Cn3nc(C(F)(F)F)c4c3C(F)(F)[C@@H]3C[C@H]43)c21 [Compound B, reference compound]
EC50 [1, 11]: 2.99 nM

— patent publication US10071985B2, “Therapeutic compounds” (Gilead Sciences, Inc., priority 2016, dated 2018)
